The text below walks through data of patent US9802942B2, “Substituted 4-methyl-pyrrolo[1,2-A]pyrimidine-8-carboxamide compounds and uses thereof for modulating glucocerebrosidase activity” (Northwestern University, priority 2015, dated 2017).

What is called AC50 is the midpoint of the concentration-response curve, whichever way the signal moves.

For assay [1], the target named is T1, glucocerebrosidase (GCase), recombinant wt. enzyme velaglucerase alfa (Homo sapiens, UniProt P04062).
T1 construct: purchased Shire Human Genetic Therapies, Inc. Vpriv
T1 sequence (P04062 40-536): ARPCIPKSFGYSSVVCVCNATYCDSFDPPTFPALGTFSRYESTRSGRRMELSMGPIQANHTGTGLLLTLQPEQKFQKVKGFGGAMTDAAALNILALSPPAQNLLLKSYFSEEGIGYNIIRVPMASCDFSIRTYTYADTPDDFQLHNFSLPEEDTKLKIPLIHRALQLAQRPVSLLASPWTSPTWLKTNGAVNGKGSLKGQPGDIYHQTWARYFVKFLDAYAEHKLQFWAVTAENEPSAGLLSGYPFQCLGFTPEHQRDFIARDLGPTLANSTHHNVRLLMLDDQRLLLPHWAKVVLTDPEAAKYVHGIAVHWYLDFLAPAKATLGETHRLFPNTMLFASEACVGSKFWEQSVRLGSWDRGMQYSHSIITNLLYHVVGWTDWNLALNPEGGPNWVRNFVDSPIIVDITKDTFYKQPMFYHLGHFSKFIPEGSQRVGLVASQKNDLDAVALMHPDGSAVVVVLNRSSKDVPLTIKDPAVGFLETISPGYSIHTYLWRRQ
Put plainly: Glucocerebrosidase activity assay with blue substrate (4MU-Glc). Conditions: 4MU-Glc substrate enzyme activity assay. In kind it is biochemical. As to the method:
(§1) The compounds in DMSO solution 0.5 μL/well were transferred to a black 96-well plate (the final titration was 24 nM to 50 μM, 12 concentrations, 2 times dilution). 33.5 μL enzyme solution (7.5 nM final concentration) was transferred to the wells. After 5 min of incubation at room temperature, the enzyme reaction was initiated by the addition of 33 μL/well blue substrate or 66.5 μL/well red substrate. Final concentrations of the blue substrate (4MU-Glc) and red substrate (Res-Glc) were 1.5 mM and 30 μM, respectively. The red substrate reaction was measured in the Biotek Synergy H1 multi-mode plate reader with Ex=573 nm and Em=610 nm at 37° C. every 20 sec for 30 min. The blue substrate reaction was terminated by the addition of 33 μL/well stop solution (1 M NaOH and 1 M glycine mixture, pH 10) after 30 min of incubation at 37° C. The fluorescence was then measured in the plate reader at Ex=365 nm and Em=440 nm.
The recombinant wt. enzyme velaglucerase alfa (Vpriv®, Shire Human Genetic Therapies, Inc.) was obtained from residual solution after clinical infusions. The GCase activity assay buffer was composed of 50 mM citric acid, 176 mM K2HPO4, and 0.01% Tween-20 at pH 5.9. A solution of 1 M sodium hydroxide and 1 M glycine was used as the stop solution for the 4MU-β-glc substrate assay.
The compounds in DMSO solution 0.5 μL/well was transferred to a black 96-well plate (the final titration was 24 nM to 50 μM, 12 concentrations). 33.5 μL enzyme solution (7.5 nM final concentration) was transferred to the wells. After 5 min of incubation at room temperature, the enzyme reaction was initiated by the addition of 33 μL/well 4MU-Glc substrate or 66.5 μL/well red substrate. Final concentrations of the 4MU-Glc substrate and Res-Glc substrate were 1.5 mM and 30 μM, respectively. The red substrate reaction was measured in the Biotek Synergy H1 multi-mode plate reader with Ex=573 nm and Em=610 nm at 37° C. in every 20 seconds for 30 min. The 4MU-Glc substrate reaction was terminated by the addition of 33 μL/well stop solution (1 M NaOH and 1 M glycine mixture, pH 10) after 30 min of incubation at 37° C. The fluorescence was then measured in the plate reader with Ex=365 nm and Em=440 nm.

The target of assay [2] is T1, glucocerebrosidase (GCase), recombinant wt. enzyme velaglucerase alfa. Put plainly: Glucocerebrosidase activity assay with red substrate (Res-β-glc). In kind it is biochemical. Conditions: at 50 μM. As for the experimental part:
as §1, with “nm. […]” for “nm.”
The compounds in DMSO solution 0.5 μL/well was transferred to a black 96-well plate (the final titration was 24 nM to 50 μM, 12 concentrations). […] The red substrate reaction was measured in the Biotek Synergy H1 multi-mode plate reader with Ex=573 nm and Em=610 nm at 37° C. in every 20 seconds for 30 min. […] The fluorescence was then measured in the plate reader with Ex=365 nm and Em=440 nm.

The next assay concerns the target T2, GCase (Homo sapiens, UniProt P04062).
T2 construct: purchased Shire Human Genetic Therapies, Inc. Vpriv
T2 sequence (P04062 40-536): T1 sequence (P04062 40-536)
Kind of assay: Binding affinity test by FP assay (competition with probe 3). The settings on record: in words; 19.5 nM to 10 μM. As to the method:
The enzyme in GCase enzyme activity buffer (25 μL/well) was added to a 384-well black plate. The fluorescent probe 3 (25 nL/well, 50 nM final concentration) was transferred to a 384-well black plate using a Labcyte Echo 550 Liquid Handler system. Compounds in DMSO stock solution (50 nL) were transferred to the plate. The plate was shaken at room temperature in dark for 20 min. The final concentration was 19.5 nM to […], 10 concentrations, 2 times dilution. The fluorescence polarization was measured in a Molecular Devices Analyst GT with Ex=535 nm and Em=580 nm, G Factor=1.05.
The enzyme in GCase enzyme activity buffer (25 μL/well) was added to a 384-wells black plate, The fluorescent probe 3 (25 nL/well, 50 nM final concentration) was transferred to a 384-wells black plate by using Labcyte Echo 550 Liquid Handler system. Compounds 1, and 2 in DMSO stock solution (50 nL) (the final titration was 19.5 nM to 10 μM, 10 concentrations) were transferred to the plate. The plate was shook at room temperature in dark for 20 min. The fluorescence polarization was measured in Molecular Devices Analyst GT with Ex=535 nm and Em=580 nm, G Factor=1.05.

A further assay has as its target T3, wt. GCase (Homo sapiens, UniProt P04062).
T3 construct: purchased Shire Human Genetic Therapies, Inc. Vpriv
T3 sequence (P04062 40-536): T1 sequence (P04062 40-536)
Kind of assay: Saposin C activation assay with 4MU-Glc substrate, wt. enzyme. Conditions: pH 4.7. Format: biochemical. As to the method: (§2) Saposin C (0.5 μL/well) was added to a black 96-well plate (the final titration was 1.72 nM to 1.76 μM, 12 concentrations). The compound 4 activated enzyme and wt. enzyme (33.5 μL/well, 7.5 nM final concentration) in assay buffer (50 mM Citric acid, 176 mM K2HPO4, 0.01% tween-20, 0.01% (g/mL) phosphatidylserine, pH 4.7) was added to the wells, respectively. After 5 min of incubation at room temperature, the enzyme reaction was initiated by the addition of 33 μL/well 4MU-Glc substrate. Final concentrations of the 4MU-Glc substrate was 1.5 mM. The reaction was terminated by the addition of 33 μL/well stop solution (1 M NaOH and 1 M glycine mixture, pH 10) after 30 min of incubation at 37° C. The fluorescence was then measured in the plate reader with Ex=365 nm and Em=440 nm.

For the next assay, the target named is T4, covalent activated GCase (Homo sapiens, UniProt P04062).
T4 construct: purchased Shire Human Genetic Therapies, Inc. Vpriv
T4 sequence (P04062 40-536): T1 sequence (P04062 40-536)
Kind of assay: Saposin C activation assay with 4MU-Glc substrate, probe 4 pre-activated enzyme. In kind it is biochemical. Conditions: pH 4.7. As for the experimental part:
as §2

Take `Cc1cc(C)n2ccc(C(=O)Nc3ccc(-c4cn(CCOCCOCCN)nn4)cc3)c2n1` [No. 3, N-(4-(1-(2-(2-(2-aminoethoxy)ethoxy)ethyl)-1H-1,2,3-triazol-4-yl)phenyl)-2,4-dimethylpyrrolo[1,2-a]pyrimidine-8-carboxamide]: the “maximum activity / activation activity” value in assay [1] was “around 14 folds”. Besides, in assay [1] (read-out: AC50), the AC50 is 6310 nM. The “activation of Res-β-glc substrate hydrolysis” value in assay [2] turned out to be 10 folds. For the same molecule, the “activity in FP competition with probe 3” value at GCase is given as “much higher activity”.

B1: Saposin C: a natural co-factor of GCase (protein, UniProt P07602 311-390, looked up)
Saposin-C: SDVYCEVCEFLVKEVTKLIDNNKTEKEILDAFDKMCSKLPKSLSEECQEVVDTYGSSILSILLEEVSPELVCSMLHLCSG
modifications: Saposin-C
notes: a natural co-factor of GCase
Take B1: the AC50 with wt. GCase is 100 nM; in the assay with covalent activated GCase it was 71 nM.
